# Active and inactive are the calls of the source. The rule behind the calls is not given here.
# How the values were obtained:
# [1] = test system: MCF7; experiment: cells; conditions: Homo sapiens, MCF7, 72 h
# [2] = biological target: Poly [ADP-ribose] polymerase 1 (Homo sapiens, UniProt P09874); experiment: Inhibition of PARP1 (unknown origin) assessed as reduction in biotinylated poly(ADP-ribose) incorporation on to histone protein by ELISA based colorimetric assay
# [3] = biological target: DNA topoisomerase 2-alpha (Homo sapiens) (UniProt P11388); experiment: Inhibition of human topoisomerase-2 at 100 uM using supercoiled pBR322 DNA as substrate after 10 to 15 mins by ethidium bromide staining based electrophoresis method
# [4] = test system: HCT-116; experiment: Antiproliferative activity against human HCT116 cells expressing topoisomerase-1 after 72 hrs by MTT assay; type: functional, cell-based; conditions: HCT-116, 72 h
# [5] = test system: HCC1937; experiment: Antiproliferative activity against human HCC1937 cells harboring BRCA1 mutant after 72 hrs by MTT assay; type: functional, cell-based; conditions: HCC1937, 72 h
# Sequence of Poly [ADP-ribose] polymerase 1 (P09874 whole entry): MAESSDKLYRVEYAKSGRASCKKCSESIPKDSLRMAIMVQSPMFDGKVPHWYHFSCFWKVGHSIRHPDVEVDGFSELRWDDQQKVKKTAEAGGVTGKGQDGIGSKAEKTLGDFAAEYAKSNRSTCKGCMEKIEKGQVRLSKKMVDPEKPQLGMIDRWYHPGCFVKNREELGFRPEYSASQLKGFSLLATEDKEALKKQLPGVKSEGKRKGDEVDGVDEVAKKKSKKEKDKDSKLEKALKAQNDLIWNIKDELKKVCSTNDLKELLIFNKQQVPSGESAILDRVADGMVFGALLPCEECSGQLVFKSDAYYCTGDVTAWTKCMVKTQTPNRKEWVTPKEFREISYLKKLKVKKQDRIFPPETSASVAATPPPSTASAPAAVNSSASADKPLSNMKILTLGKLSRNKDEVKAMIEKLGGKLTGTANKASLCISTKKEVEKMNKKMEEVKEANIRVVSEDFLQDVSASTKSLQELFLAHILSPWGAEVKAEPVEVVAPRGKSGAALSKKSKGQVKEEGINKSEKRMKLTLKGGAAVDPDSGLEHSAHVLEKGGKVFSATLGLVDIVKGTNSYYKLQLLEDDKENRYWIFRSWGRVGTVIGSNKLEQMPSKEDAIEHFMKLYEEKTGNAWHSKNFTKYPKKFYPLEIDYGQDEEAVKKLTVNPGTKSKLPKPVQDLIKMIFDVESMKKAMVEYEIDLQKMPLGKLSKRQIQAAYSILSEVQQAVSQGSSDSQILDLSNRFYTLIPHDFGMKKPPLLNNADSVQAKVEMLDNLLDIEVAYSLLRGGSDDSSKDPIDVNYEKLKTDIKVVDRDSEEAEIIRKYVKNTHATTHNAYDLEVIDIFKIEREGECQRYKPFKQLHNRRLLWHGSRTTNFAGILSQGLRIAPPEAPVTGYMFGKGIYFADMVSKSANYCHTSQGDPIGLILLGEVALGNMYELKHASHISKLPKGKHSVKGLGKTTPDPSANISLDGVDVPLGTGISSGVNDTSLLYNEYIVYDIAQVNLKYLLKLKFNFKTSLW
# Sequence of DNA topoisomerase 2-alpha (Homo sapiens) (P11388 whole entry): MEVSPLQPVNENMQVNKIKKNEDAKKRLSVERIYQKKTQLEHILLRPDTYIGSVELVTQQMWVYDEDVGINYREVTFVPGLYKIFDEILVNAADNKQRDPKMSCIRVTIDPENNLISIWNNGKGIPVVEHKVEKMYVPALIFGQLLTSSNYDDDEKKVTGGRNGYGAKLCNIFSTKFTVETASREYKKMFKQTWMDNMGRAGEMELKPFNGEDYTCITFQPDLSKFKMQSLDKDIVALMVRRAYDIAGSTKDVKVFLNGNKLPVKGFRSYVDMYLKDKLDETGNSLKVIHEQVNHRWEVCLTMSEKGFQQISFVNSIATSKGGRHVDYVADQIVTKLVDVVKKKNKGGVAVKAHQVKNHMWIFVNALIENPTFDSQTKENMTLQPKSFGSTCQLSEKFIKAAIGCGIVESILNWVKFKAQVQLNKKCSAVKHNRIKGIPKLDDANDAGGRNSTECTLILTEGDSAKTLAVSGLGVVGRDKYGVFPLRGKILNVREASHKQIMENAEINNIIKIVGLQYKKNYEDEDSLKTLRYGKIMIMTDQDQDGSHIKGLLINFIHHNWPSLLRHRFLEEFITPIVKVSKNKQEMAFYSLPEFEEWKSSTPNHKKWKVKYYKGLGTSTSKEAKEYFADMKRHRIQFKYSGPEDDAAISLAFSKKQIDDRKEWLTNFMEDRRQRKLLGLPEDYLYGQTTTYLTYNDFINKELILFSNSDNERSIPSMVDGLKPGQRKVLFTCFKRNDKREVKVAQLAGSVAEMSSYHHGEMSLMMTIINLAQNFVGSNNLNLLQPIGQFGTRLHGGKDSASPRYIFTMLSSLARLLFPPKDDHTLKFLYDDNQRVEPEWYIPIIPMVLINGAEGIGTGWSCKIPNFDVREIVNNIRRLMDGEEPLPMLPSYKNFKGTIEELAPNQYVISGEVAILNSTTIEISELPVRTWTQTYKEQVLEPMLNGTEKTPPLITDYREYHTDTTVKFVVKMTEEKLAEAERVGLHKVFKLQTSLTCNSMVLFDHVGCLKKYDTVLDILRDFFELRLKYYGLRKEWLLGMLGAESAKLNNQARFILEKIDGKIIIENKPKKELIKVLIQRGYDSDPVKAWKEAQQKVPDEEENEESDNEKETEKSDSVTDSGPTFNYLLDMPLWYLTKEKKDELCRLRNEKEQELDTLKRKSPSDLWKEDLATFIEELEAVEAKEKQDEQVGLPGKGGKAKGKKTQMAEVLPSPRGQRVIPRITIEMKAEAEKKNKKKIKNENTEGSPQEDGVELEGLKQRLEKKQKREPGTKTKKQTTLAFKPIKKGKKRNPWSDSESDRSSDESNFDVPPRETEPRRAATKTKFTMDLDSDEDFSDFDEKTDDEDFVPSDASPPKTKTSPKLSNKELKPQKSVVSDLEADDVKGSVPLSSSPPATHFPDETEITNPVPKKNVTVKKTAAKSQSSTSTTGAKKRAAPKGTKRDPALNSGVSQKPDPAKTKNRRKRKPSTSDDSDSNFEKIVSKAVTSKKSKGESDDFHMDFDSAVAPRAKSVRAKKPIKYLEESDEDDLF
SMILES,IC50 [1] [µM],IC50 [2] [µM],inhibition [3],IC50 [4] [µM],IC50 [5] [µM]
NC(=O)c1cccc2[nH]c(-c3ccccc3Nc3c4ccccc4nc4ccccc34)nc12,> 50,1.99,Active,,
NC(=O)c1cccc2[nH]c(-c3ccc(Nc4c5ccccc5nc5ccccc45)cc3)nc12,12,0.09,Active,,
COc1cc(NS(C)(=O)=O)ccc1Nc1c2ccccc2nc2ccccc12 [AMSACRINE],8.7,,,3.89,7.85
COc1ccc2nc3ccccc3c(Nc3ccccc3-c3nc4c(C(N)=O)cccc4[nH]3)c2c1,21.8,1.7,Active,,
NC(=O)c1cccc2[nH]c(-c3cccc(Nc4c5ccccc5nc5ccccc45)c3)nc12,36.1,1.39,,,
COc1ccc2nc3ccccc3c(Nc3cccc(-c4nc5c(C(N)=O)cccc5[nH]4)c3)c2c1,45.3,1.14,Active,,
NC(=O)c1cccc2[nH]c(-c3ccccc3N)nc12,> 50,> 50,,,
COc1ccc2nc3ccccc3c(Nc3ccc(-c4nc5c(C(N)=O)cccc5[nH]4)cc3)c2c1,38.2,0.25,Active,,
Cc1ccc2nc3ccccc3c(Nc3ccc(-c4nc5c(C(N)=O)cccc5[nH]4)cc3)c2c1,39.3,0.1,Active,,
CCCCc1ccc2nc3ccccc3c(Nc3ccc(-c4nc5c(C(N)=O)cccc5[nH]4)cc3)c2c1,> 50,0.13,Active,,
O=C(c1cc(Cc2n[nH]c(=O)c3ccccc23)ccc1F)N1CCN(C(=O)C2CC2)CC1 [OLAPARIB],36.2,,,15.1,4.97
NC(=O)c1cccc2[nH]c(-c3cccc(N)c3)nc12,> 50,0.03,,,
NC(=O)c1cccc2nc(-c3ccc(N)cc3)[nH]c12,> 50,0.03,,,
Cc1cccc2c(Nc3ccc(-c4nc5c(C(N)=O)cccc5[nH]4)cc3)c3ccccc3nc12,39.1,0.14,Active,,
COc1cccc2c(Nc3cccc(-c4nc5c(C(N)=O)cccc5[nH]4)c3)c3ccccc3nc12,25.8,0.97,Active,,
COc1cccc2c(Nc3ccc(-c4nc5c(C(N)=O)cccc5[nH]4)cc3)c3ccccc3nc12,13.2,0.19,Active,,
c1ccc2[nH]c(-c3ccc(Nc4c5ccccc5nc5ccccc45)cc3)nc2c1,26.1,,,,
Cc1ccc2nc3ccccc3c(Nc3cccc(-c4nc5c(C(N)=O)cccc5[nH]4)c3)c2c1,29.6,0.51,Active,,
CCCCc1ccc2nc3ccccc3c(Nc3cccc(-c4nc5c(C(N)=O)cccc5[nH]4)c3)c2c1,> 50,0.32,Active,,

# Source: ChEMBL document CHEMBL4130375, “Design, synthesis and biological evaluation of 4-amidobenzimidazole acridine derivatives as dual PARP and Topo inhibitors for cancer therapy” (Eur J Med Chem, 2017)
